Results on two compounds are retold here after publication PMC9007951, “Systematically evaluating DOTATATE and FDG as PET immuno-imaging tracers of cardiovascular inflammation” (Scientific Reports, 2022).

Read-outs that look alike come from different tables or passages of the source.

Series [1] concerns Apoe^−/− atherosclerotic mice. Nature of the series: In vivo PET/CT of vascular inflammation in atherosclerotic mice. The note with it: tracer circulated 60 min, median, N = 4. As for the experimental part: Animals were housed under a constant room temperature at 25 ± 2 °C and 50 ± 5% humidity with a 12-h daylight period and 12-h darkness period, with free access to water. For the mouse atherosclerosis model, 8-weeks old female Apoe^−/− mice (N = 51) were purchased from Jackson Laboratories (Bar Harbor, ME) and, after a 48 h acclimatization period, were fed a Western Diet (42% Kcal from fat TD88137, Envigo, Huntingdon, UK) for 12 weeks. 16–20 weeks old female C57Bl/6 controls (N = 67) were kept on regular chow diet. The myocardial infarction group consisted 16–20 weeks old female C57Bl/6 mice (N = 18) purchased from Jackson Laboratories and subjected to ligation of the left anterior descending artery, as previously described.
(§1) For the PET/CT experiments, mice were fasted for 12 h before radiotracer injection and anesthetized with xylazine (10 mg/kg) and ketamine (100 mg/kg) through intraperitoneal injection prior to radiotracer administration. Subsequently they were injected via the lateral tail vein with approximately 22.2 MBq of [^18F]F-FDG or 5.55 MBq of [^64Cu]Cu-DOTATATE. Tracers were allowed to circulate for 60 min. Immediately before imaging, mice were placed under 1% isoflurane (BaxterHealthcare, Deerfield, IL), and subsequently imaged on a high resolution (700 µm) Mediso nanoScan PET/CT scanner (Mediso, Budapest, Hungary). CT scan was acquired at 50 kVp and 300 ms exposure per projection. eXIA160 (Binitio, Ontario, Canada) was used as a contrast agent to improve imaging of the vasculature by intravenous administration of 100 μl per mouse 5 min prior to CT acquisition. PET acquisition time was 40 min. Reconstruction was performed using TeraTomo 3D reconstruction engine, for 8 iterations and 6 subsets per iteration for both tracers. The voxel size was isotropic at 0.3 mm. Immediately after the PET/CT scan, animals were euthanized for ex vivo assays.
(§2) Using OsiriX v5.6 software (OsiriX Foundation, Geneva, Switzerland), regions of interest (ROIs) were drawn to determine organ radioactivity concentration. In mice, for healthy and infarcted myocardium, ROIs were traced manually in the apex of the heart in the axial view. For remote myocardium, analysis was performed in myocardium 180° from the infarcted zone. In the mice aorta, sequential ROIs were drawn in the ascending aorta based on consecutive tomographic (CT) slices beginning from the root up to the brachiocephalic branch, merging point with the aortic arch. Voxel counts were converted to maximum standardized uptake values (SUVmax). In rabbits, PET images were fused with time-of-flight bright blood MRI angiography and ROIs were manually drawn on the infrarenal abdominal aorta in TOF images. The slice-by-slice maximum standard uptake values (SUVmax) were averaged across the whole aorta. […]

For series [2], the system named is C57Bl/6 mice subjected to myocardial infarction. As to the kind of experiment: In vivo PET/CT of cardiac inflammation in infarcted mice. The settings on record: tracer circulated 60 min, median. Here is the method:
Myocardial infarction in mice was induced by permanent ligation of the left anterior descending (LAD) coronary artery of female C57Bl/6 mice (N = 18). Briefly, animals were anesthetized with xylazine (10 mg/kg) and ketamine (100 mg/kg) and intubated using an endotracheal intubation kit from Braintree Scientific (Braintree, MA). Left-sided thoracotomy and pericardial incision were performed. A 7-0 Silk suture was used to occlude the LAD. Incisions were closed with a 5-0 Silk suture. Infarcted animals were treated with 0.1 mg/kg of buprenorphine every 12 h and used 3 days after the surgery.
as §1, §2

Series [3] in a line: Organ biodistribution of [^68Ga]Ga-DOTATATE by ex vivo gamma counting. In kind it is in vivo, New Zealand White rabbits. The settings on record: male, New Zealand White, rabbit, 190 MBq, total radioactivity, 200 min after tracer injection, median (IQR). Here is the method:
Adopting a translational approach, the rabbit studies were performed with the [^68Ga]Ga-labeled tracer, which is already being used in the clinic. [^68Ga]Ga-DOTATATE was purchased from Advanced Accelerator Applications (AAA, Millburn, NJ, USA). To determine its pharmacokinetics, three atherosclerotic rabbits and two healthy controls were injected with approximately 190 MBq of [^68Ga]Ga-DOTATATE. Venous blood was sampled at 1, 5, 10, 15, 20, 30, 60, 120, 180, 240 and 300 min after injection through the ear vein. Samples were weighed and gamma counted. Blood half-life data were fitted using a two-phase decay non-linear regression using GraphPad Prism v8.4.3 (Supplementary Table S1). To investigate the tracer blood distribution, blood samples were centrifuged at 2000 g for 15 min at 4 °C to determine the radioactivity concentration in the plasma and cellular fractions. To analyze [^68Ga]Ga-DOTATATE biodistribution, all rabbits were euthanized after the last imaging time-point using an injection of pentobarbital 100 mg/kg and exsanguination of the portal vein. Rabbits were extensively perfused with 1000 mL of saline. Following, tissues (blood, heart, aorta, liver, kidney, skeletal muscle, small and large intestine, fat, stomach, pancreas and bladder) were harvested, weighed and gamma counted.

Setting [4] is: C57Bl/6 mice 3 days after LAD ligation, N = 4 ([^64Cu]Cu-DOTATATE), N = 6 ([^18F]F-FDG).

As for `OC[C@H]1OC(O)[C@H]([18F])[C@@H](O)[C@@H]1O` (some centres unmarked) [[^18F]F-FDG, [^18F]F-fluorodeoxyglucose], the SUVmax ascending aorta in series [1] (Apoe^−/− mice 12 weeks on Western Diet) is reported as 1.2; in series [1] (healthy C57Bl/6 control mice) it was 1.7. In addition, in series [2] (setting [4]), the SUVmax infarcted myocardium was found to be 4.2. Moreover, the “SUVmax remote (non-infarcted) myocardium” value in series [2] (setting [4]) was 2.1. In addition, in series [2] (healthy C57Bl/6 mice, N = 4), the “SUVmax heart of control animals” value is 3.4.
With `C[C@@H](O)[C@H](NC(=O)[C@@H]1CSSC[C@H](NC(=O)[C@@H](Cc2ccccc2)NC(=O)CN2CCN(CC(=O)O)CCN(CC(=O)O)CCN(CC(=O)O)CC2)C(=O)N[C@@H](Cc2ccc(O)cc2)C(=O)N[C@H](Cc2c[nH]c3ccccc23)C(=O)N[C@@H](CCCCN)C(=O)N[C@@H]([C@@H](C)O)C(=O)N1)C(=O)O` [[^68Ga]Ga-DOTATATE, metal not drawn], the tissue uptake at 200 min turned out to be 0.017 %ID/g in series [3] (abdominal aorta, iv, male athero4mo rabbits, N = 9, read-out: Tissue radioactivity, abdominal aorta); 0.006 %ID/g in series [3] (abdominal aorta, iv, male control rabbits, N = 6, read-out: Tissue radioactivity, abdominal aorta); 0.012 %ID/g in series [3] (adrenal gland, iv, male athero4mo rabbits, N = 9, read-out: Tissue radioactivity, adrenal gland); 0.003 %ID/g in series [3] (adrenal gland, iv, male control rabbits, N = 6, read-out: Tissue radioactivity, adrenal gland); 0.075 %ID/g in series [3] (bladder, intravenous, male athero4mo rabbits, N = 9, read-out: Tissue radioactivity, bladder); 0.053 %ID/g in series [3] (bladder, intravenous, male control rabbits, N = 6, read-out: Tissue radioactivity, bladder). In addition, the tissue uptake at 200 min in series [3] (bone marrow, intravenous, male athero4mo rabbits, N = 9, read-out: Tissue radioactivity, bone marrow) was found to be 0.006 %ID/g; in series [3] (bone marrow, intravenous, male control rabbits, N = 6, read-out: Tissue radioactivity, bone marrow), 0.003 %ID/g; in series [3] (fat, intravenous, male athero4mo rabbits, N = 9, read-out: Tissue radioactivity, fat), 0.002 %ID/g; in series [3] (heart, iv, male athero4mo rabbits, N = 9, read-out: Tissue radioactivity, heart), 0.006 %ID/g; in series [3] (heart, iv, male control rabbits, N = 6, read-out: Tissue radioactivity, heart), 0.003 %ID/g; in series [3] (kidneys, iv, male athero4mo rabbits, N = 9, read-out: Tissue radioactivity, kidneys), 0.157 %ID/g. The tissue uptake at 200 min came out at 0.128 %ID/g in series [3] (kidneys, iv, male control rabbits, N = 6, read-out: Tissue radioactivity, kidneys); 0.01 %ID/g in series [3] (large intestine, iv, male athero4mo rabbits, N = 9, read-out: Tissue radioactivity, large intestine); 0.005 %ID/g in series [3] (large intestine, iv, male control rabbits, N = 6, read-out: Tissue radioactivity, large intestine); 0.006 %ID/g in series [3] (liver, intravenous, male athero4mo rabbits, N = 9, read-out: Tissue radioactivity, liver); 0.015 %ID/g in series [3] (lungs, iv, male athero4mo rabbits, N = 9, read-out: Tissue radioactivity, lungs); 0.005 %ID/g in series [3] (lungs, iv, male control rabbits, N = 6, read-out: Tissue radioactivity, lungs). Further, the tissue uptake at 200 min in series [3] (lymph node, iv, male athero4mo rabbits, N = 9, read-out: Tissue radioactivity, lymph node) was determined as 0.013 %ID/g; in series [3] (lymph node, iv, male control rabbits, N = 6, read-out: Tissue radioactivity, lymph node) it was 0.005 %ID/g; in series [3] (muscle, iv, male athero4mo rabbits, N = 9, read-out: Tissue radioactivity, muscle), 0.003 %ID/g; in series [3] (muscle, iv, male control rabbits, N = 6, read-out: Tissue radioactivity, muscle), 0.001 %ID/g; in series [3] (pancreas, intravenous, male control rabbits, N = 6, read-out: Tissue radioactivity, pancreas), 0.005 %ID/g; in series [3] (small intestine, iv, male athero4mo rabbits, N = 9, read-out: Tissue radioactivity, small intestine), 0.021 %ID/g. Moreover, the tissue uptake at 200 min in series [3] (small intestine, iv, male control rabbits, N = 6, read-out: Tissue radioactivity, small intestine) was determined as 0.025 %ID/g; in series [3] (spleen, intravenous, male athero4mo rabbits, N = 9, read-out: Tissue radioactivity, spleen) it was 0.012 %ID/g; in series [3] (spleen, intravenous, male control rabbits, N = 6, read-out: Tissue radioactivity, spleen) it was 0.015 %ID/g; in series [3] (stomach, intravenous, male athero4mo rabbits, N = 9, read-out: Tissue radioactivity, stomach), 0.053 %ID/g; in series [3] (thoracic aorta, iv, male athero4mo rabbits, N = 9, read-out: Tissue radioactivity, thoracic aorta) it was 0.015 %ID/g; in series [3] (thoracic aorta, iv, male control rabbits, N = 6, read-out: Tissue radioactivity, thoracic aorta), 0.004 %ID/g.
